From patent US20220409598A1, “METHOD OF CONTROLLING BLOOD SUGAR LEVEL AND TREATMENT OF DIABETES AND RELATED CONDITIONS” (ILDONG PHARMACEUTICAL CO., LTD., priority 2021, published 2022)
Where two headings read alike, the source gives them in different places.

What was measured:
[1] = diabetics, metformin on its own; cited from earlier work
[2] = test system: NRF2; experiment: Transcription factor profiling in 2D HepG2 cell, NRF2; type: cell-based; conditions: 10 μM for 24 hours
[3] = test system: glycocholic acid (GCA) accumulation; experiment: Bile acid analysis, glycocholic acid (GCA) accumulation; type: cell-based
Source text: Glycocholic acid (GCA) and glycochenodeoxycholic acid (GCDCA) are major components of human bile acids and their significant increase has been confirmed in DILI patients.

[4] = test system: human hepatocytes; conditions: Otieno et al. 2018, cited from earlier work
[5] = target: MRP2 (Homo sapiens, UniProt Q92887); experiment: Human transporter inhibition study, MRP2; type: biochemical; conditions: read-out: MRP2 in vitro inhibition IC50
Chain of MRP2 (Q92887 whole entry): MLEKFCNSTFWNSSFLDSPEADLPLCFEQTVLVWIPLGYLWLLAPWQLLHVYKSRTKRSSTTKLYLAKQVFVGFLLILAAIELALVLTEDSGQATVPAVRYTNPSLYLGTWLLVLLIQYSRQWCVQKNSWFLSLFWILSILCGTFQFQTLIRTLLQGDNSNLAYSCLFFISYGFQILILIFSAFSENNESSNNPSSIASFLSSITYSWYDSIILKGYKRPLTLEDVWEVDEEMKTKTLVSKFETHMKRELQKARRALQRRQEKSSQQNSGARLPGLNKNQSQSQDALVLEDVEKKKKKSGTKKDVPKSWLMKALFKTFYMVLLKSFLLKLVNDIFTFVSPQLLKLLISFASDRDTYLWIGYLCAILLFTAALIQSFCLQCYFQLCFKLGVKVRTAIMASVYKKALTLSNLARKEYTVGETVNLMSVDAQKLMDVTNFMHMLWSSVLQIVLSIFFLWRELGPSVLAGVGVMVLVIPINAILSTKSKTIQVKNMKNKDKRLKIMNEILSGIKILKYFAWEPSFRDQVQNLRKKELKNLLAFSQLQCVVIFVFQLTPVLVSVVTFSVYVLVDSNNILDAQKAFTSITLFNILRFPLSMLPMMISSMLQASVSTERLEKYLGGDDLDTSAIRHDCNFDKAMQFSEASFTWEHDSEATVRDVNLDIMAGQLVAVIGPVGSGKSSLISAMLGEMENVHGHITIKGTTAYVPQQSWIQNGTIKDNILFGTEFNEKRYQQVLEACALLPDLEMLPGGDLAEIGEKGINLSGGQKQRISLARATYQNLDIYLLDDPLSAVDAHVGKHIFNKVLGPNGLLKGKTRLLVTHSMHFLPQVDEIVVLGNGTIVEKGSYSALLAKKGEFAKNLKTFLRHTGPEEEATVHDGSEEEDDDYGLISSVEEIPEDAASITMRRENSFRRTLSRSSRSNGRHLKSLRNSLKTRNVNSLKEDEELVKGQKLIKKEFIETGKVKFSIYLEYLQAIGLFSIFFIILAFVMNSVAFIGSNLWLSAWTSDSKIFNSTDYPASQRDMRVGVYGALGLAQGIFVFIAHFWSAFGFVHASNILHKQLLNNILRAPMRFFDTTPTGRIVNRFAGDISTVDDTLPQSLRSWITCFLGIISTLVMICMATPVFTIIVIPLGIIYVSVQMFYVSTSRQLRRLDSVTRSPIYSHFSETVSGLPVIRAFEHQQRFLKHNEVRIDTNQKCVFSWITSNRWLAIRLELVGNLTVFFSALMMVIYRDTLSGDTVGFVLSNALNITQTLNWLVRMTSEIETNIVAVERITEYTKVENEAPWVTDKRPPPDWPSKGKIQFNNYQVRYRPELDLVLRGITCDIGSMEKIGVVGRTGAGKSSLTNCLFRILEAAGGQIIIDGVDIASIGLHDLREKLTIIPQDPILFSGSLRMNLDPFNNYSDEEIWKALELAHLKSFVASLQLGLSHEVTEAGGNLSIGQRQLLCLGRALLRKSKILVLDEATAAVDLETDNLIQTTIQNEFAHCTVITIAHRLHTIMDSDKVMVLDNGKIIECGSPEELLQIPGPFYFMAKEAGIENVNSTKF
Source text: (§1) • (a) Human Transporter Inhibition Study and Safety Margin

[6] = test system: AP-1; experiment: Transcription factor profiling in 2D HepG2 cell, AP-1; type: cell-based; conditions: 10 μM for 24 hours
[7] = target: BSEP (bile salt export pump) (Homo sapiens, UniProt O95342); experiment: Human transporter inhibition study, BSEP; type: biochemical
Chain of BSEP (bile salt export pump) (O95342 whole entry): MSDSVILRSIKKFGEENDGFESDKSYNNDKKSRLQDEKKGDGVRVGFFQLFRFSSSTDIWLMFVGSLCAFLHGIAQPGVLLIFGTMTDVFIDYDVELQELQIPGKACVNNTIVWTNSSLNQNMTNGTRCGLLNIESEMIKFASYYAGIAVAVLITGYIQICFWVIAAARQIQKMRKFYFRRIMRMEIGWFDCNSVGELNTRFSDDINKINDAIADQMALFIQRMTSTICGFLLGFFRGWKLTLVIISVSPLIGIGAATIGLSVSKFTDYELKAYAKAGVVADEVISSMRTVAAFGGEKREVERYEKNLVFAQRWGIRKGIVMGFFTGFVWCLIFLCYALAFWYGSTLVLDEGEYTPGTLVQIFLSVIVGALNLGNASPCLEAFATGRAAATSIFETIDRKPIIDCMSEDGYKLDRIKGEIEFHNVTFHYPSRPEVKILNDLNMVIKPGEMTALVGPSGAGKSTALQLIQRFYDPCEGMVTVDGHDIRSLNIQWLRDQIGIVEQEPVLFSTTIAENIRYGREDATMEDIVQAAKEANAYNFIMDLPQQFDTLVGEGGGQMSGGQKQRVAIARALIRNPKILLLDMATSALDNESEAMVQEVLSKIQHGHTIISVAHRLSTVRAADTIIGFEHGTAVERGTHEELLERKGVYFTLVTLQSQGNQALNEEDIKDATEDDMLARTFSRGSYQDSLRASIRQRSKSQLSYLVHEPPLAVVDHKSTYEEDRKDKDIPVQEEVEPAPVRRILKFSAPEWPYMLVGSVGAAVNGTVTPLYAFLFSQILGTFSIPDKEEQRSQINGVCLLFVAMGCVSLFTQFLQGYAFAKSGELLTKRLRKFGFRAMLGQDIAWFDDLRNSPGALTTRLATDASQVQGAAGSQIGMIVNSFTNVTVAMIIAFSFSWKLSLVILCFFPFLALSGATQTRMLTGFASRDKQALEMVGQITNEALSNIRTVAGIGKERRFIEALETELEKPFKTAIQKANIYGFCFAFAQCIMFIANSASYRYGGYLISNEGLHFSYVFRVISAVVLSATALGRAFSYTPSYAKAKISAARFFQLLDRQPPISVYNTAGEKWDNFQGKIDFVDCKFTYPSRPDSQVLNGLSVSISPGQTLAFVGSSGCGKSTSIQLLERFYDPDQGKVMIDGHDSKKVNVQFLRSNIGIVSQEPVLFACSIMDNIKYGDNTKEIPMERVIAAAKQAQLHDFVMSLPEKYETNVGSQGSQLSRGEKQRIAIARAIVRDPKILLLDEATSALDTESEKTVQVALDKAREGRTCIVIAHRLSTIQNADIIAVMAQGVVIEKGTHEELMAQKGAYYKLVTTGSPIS
Source text: DILI risk may be due to potency of BSEP inhibition in combination with in vivo drug exposure (e.g., Cmax or Css (plasma concentration at steady state)).
as §1

[8] = test system: PPAR; experiment: Transcription factor profiling in 2D HepG2 cell, PPAR; type: cell-based; conditions: 10 μM for 24 hours
[9] = target: MRP3 (Homo sapiens, UniProt O15438); experiment: Human transporter inhibition study, MRP3; type: biochemical
Chain of MRP3 (O15438 whole entry): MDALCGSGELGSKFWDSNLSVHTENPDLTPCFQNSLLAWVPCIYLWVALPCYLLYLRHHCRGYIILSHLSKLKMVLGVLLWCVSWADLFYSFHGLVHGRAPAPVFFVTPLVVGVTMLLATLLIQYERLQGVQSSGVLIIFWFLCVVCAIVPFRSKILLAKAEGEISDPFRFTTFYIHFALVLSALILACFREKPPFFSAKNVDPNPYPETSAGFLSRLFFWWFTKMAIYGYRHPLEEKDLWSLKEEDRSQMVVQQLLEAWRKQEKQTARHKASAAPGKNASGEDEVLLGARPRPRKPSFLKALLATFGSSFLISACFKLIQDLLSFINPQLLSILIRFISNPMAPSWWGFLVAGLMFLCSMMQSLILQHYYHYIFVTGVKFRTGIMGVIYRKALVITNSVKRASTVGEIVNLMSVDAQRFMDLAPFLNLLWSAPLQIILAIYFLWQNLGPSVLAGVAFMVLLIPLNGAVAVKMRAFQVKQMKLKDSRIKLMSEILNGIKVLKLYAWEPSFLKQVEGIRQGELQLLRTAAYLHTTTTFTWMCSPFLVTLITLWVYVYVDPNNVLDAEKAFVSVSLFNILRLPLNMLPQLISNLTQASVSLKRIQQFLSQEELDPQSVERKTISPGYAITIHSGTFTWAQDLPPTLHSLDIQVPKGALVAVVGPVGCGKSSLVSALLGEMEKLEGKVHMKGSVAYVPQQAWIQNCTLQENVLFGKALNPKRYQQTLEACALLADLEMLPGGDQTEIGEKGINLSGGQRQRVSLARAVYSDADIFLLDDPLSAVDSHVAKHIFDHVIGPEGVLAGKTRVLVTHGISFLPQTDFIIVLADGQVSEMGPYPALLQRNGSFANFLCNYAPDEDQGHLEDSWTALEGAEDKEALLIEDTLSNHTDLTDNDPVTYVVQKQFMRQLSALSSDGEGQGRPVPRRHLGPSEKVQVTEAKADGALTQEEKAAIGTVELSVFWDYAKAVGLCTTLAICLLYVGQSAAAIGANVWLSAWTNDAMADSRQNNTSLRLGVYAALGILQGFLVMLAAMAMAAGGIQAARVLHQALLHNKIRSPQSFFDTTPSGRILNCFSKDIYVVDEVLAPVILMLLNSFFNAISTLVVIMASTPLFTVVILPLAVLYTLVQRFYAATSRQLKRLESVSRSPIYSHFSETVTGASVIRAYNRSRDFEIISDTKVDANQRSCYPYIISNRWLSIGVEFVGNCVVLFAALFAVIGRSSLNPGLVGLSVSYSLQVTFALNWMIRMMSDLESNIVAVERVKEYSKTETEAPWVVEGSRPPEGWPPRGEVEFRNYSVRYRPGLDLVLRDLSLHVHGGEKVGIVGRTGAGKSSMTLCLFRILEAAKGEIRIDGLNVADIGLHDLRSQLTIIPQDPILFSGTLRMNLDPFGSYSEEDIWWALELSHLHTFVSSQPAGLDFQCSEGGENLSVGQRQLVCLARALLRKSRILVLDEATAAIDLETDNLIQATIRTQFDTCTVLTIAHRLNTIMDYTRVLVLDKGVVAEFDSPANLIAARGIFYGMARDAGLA
Source text: as §1

[10] = target: T1, MRP4 (Homo sapiens, UniProt O15439); experiment: Human transporter inhibition study, MRP4; type: biochemical; conditions: read-out: MRP4 in vitro inhibition IC50
T1 sequence (O15439 1-1325): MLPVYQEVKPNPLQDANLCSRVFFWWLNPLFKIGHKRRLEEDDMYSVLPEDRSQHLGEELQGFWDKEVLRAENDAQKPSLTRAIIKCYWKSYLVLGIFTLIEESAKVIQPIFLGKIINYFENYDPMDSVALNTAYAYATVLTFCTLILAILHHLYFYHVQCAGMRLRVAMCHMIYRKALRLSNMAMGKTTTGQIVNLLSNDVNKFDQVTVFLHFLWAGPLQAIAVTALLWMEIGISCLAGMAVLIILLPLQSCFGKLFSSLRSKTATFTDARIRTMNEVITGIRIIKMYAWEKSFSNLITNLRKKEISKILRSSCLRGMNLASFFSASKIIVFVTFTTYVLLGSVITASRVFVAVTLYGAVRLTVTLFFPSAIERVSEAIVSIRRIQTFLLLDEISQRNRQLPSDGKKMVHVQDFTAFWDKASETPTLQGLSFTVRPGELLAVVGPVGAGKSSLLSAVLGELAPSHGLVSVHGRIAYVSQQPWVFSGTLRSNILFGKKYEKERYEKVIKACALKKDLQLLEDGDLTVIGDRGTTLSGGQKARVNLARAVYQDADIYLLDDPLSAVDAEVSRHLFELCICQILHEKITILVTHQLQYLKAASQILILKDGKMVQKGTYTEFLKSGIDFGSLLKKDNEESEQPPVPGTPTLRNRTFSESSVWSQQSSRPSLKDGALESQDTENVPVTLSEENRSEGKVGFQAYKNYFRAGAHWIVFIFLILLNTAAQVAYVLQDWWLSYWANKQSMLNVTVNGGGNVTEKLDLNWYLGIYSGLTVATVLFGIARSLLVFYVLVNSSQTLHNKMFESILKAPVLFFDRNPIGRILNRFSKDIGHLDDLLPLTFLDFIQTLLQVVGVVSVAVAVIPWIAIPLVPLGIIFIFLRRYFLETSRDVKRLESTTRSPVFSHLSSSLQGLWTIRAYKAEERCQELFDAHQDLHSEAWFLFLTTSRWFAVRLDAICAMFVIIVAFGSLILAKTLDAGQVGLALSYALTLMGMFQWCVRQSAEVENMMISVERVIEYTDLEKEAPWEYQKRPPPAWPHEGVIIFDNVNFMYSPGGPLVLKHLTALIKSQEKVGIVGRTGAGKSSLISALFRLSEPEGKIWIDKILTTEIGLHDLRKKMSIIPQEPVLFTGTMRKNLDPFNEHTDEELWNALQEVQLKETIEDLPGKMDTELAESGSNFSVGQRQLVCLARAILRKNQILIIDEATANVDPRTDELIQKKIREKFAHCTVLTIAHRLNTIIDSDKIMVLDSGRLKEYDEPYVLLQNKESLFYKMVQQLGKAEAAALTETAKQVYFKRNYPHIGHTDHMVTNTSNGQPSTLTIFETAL
Source text: as §1

[11] = cited from earlier work; for Cmax: fasiglifam, Clin. Pharmacol. Ther. 92, 29-39, read-out: Human Cmax (maximum plasma concentration at steady state); for Cpss, max: human
[12] = HμRELTox assay, hepatotoxic response; type: cell-based; conditions: read-out: TC50 (the source's name)
[13] = OGTT (Oral Glucose Tolerance Test) in SD rats; type: in vivo; conditions: 1 mg/kg
Experimental: Additionally, the results of the exposure and efficacy of Reference Example 1 compound (at 0.1 mg/kg, 0.3 mg/kg, and 1 mg/kg doses) in SD rats are shown in FIG. 6.

[14] = Single ascending dose (SAD) study in healthy human, safety; type: in vivo
Experimental: (§2) To determine safety and pK data in human subjects, single ascending dose (SAD) study was conducted. SAD study included 5 cohorts of 8 healthy subjects who were randomized and received a single oral dose of Reference Example 1 compound or placebo (3:1) at 0.5 mg, 1 mg, 2 mg, 5 mg, or 10 mg. Each cohort was initiated after review of the safety and PK data of the previous cohort. 5 mg cohort was divided into two groups, wherein one group was administered with Reference Example 1 compound in fasted state and the other group was administered with Reference Example 1 compound together with food.
As expected from preclinical PK modelling, none of the single doses exceeded the PK stopping criteria for Cmax and AUClast.
Of the 12 AEs, 5 were considered to be possibly related to IMP (Investigational Medicinal Product). The 5 AE included headaches (2), lower abdominal pain, diarrhea, and exanthema in the right upper arm, all of which were of mild intensity and recovered quickly.
Overall, none of the AEs caused medical concern, and no stopping criteria per protocol were met.

[15] = test system: hepatic transcription factors; experiment: Transcription factor profiling in 2D HepG2 cell, various hepatic transcription factors; type: cell-based; conditions: 2D HepG2 cell, 0.3, 3.3, 10 μM; compared to fasiglifam
[16] = test system: human hepatocytes; experiment: Covalent protein binding in human hepatocytes; type: in vitro ADME
Experimental: The covalent binding (CVB) burden was estimated by determining the CVB of radiolabeled compound to human hepatocytes and factoring in both the daily dose and the fraction of metabolism leading to CVB. […] Reference Example 1 compound's dose over 260 mg a day was predicted to exceed the CVB burden threshold of 1 mg/day.

[17] = test system: HepaRG cell; experiment: Mitochondrial function inhibition in HepaRG cell; type: cell-based
[18] = Single ascending dose (SAD) study in healthy human, plasma PK; type: in vivo; conditions: for AUC(0-inf) / AUC(0-t) / Cmax: human, plasma, po; for AUC(0-inf): read-out: AUCinf, geometric mean; for AUC(0-t): read-out: AUClast, geometric mean; for Cmax: read-out: Cmax, geometric mean
Experimental: as §2
Mean plasma concentration of Reference Example 1 compound following single dose of 0.5, 1, 2, 5, and 10 mg are shown in FIG. 4A (linear scale) and FIG. 4B (semi-logarithmic scale).
FIG. 5A and FIG. 5B show mean plasma concentration of Reference Example 1 compound following single dose of 0.5 mg (fasted), 1 mg (fasted), 2 mg (fasted), 5 mg (fasted), and 5 mg (fed) in linear scale and semi-logarithmic scale, respectively.

[19] = test system: FXR; experiment: Transcription factor profiling in 2D HepG2 cell, FXR; type: cell-based; conditions: 10 μM for 48 hours
[20] = human hepatocytes, compound alone
[21] = in vitro inhibition, read-out: BSEP IC50
[22] = 0.5 mg, single oral dose 0.5 mg
[23] = 5 mg, single oral dose 5 mg fasted
[24] = 5 mg, single oral dose 5 mg fed

For `CN(C)C(=N)N=C(N)N` [metformin], the “Average improvement in the HbA1c value” [1] is listed as 1.0-1.5%.
In the case of `Cc1cc(OCCCS(C)(=O)=O)cc(C)c1-c1cccc(COc2ccc3c(c2)OC[C@H]3CC(=O)O)c1` [fasiglifam], the “Activity of NRF2” value [2] is listed as “significantly increased”, the “Accumulation of glycocholic acid (GCA)” value ([3]; at 4 μM) is listed as “significant accumulation” and the “CVB Burden” value ([4]; daily dose 50 mg) is listed as 2 mg/day. For the same molecule, the “Covalent binding (CVB), compound” value [4, 20] was 69.1 pmol/mg protein, the “Covalent binding (CVB), +Aminobenzotriazole (CYP inhibitor)” value ([4]; human hepatocytes) was 73.7 pmol/mg protein and the “Covalent binding (CVB), +Borneol (UGT inhibitor)” value ([4]; human hepatocytes) was 44.4 pmol/mg protein. For the same molecule, the IC50 [5] was 24.8 µM, the “Activity of AP-1” value [6] was “significantly increased” and the IC50 [7, 21] was 19.6 µM. The “Activity of PPAR” value [8] was “significantly increased”, the IC50 ([9]; read-out: MRP3 in vitro inhibition IC50) was 14.2 µM and the IC50 [10] was 11.1 µM. For the same molecule, the Cmax ([11]; listed as Fasiglifam) was 10 µM, the Cmax [11] was 10.1 µM and the “Cpss, max” value ([11]; dose 25 mg) was 4.38 µM. For the same molecule, the “Cpss, max” value ([11]; dose 50 mg) was 10.10 µM and the CC50 [12] was 88.4 µM.
In the case of `CC#C[C@@H](CC(=O)O)c1ccc(O[C@@H]2CCc3c(-c4ccc(O[C@@H]5CCOC5)nc4)ccc(F)c32)cc1` [Reference Example 1, (S)-3-(4-(((R)-7-Fluoro-4-(6-(((R)-tetrahydrofuran-3-yl)oxy)pyridin-3-yl)-2,3-dihydro-1H-inden-1-yl)oxy)phenyl)hex-4-ynoic acid], the “Accumulation of glycocholic acid (GCA)” value ([3]; at 1 μM) is reported as “does not show significant accumulation”, the “Reduction in glucose AUC in OGTT” value [13] is reported as “approximately 20.8%” and the “Changes in ECG, vital signs, and lab data” value ([14]; SAD study) is reported as “no significant changes”. For the same molecule, the “Adverse events of special interest / serious adverse events” value ([14]; SAD study 0.5-10 mg) was “no adverse event of special interest (AESI) or serious adverse event (SAE) was reported”, the “Number of AEs considered possibly related to IMP” value ([14]; SAD study, all mild intensity) was 5 and the “Number of adverse events (AE) reported” value ([14]; SAD study, compound or placebo) was 12. For the same molecule, the “Tolerability of single doses” value ([14]; single oral doses 0.5 mg to 10 mg) was “safe and well tolerated”, the “Effect on various transcription factor (TF) activities” value [15] was “insignificant” and the IC50 [5] was 39.9 µM. For the same molecule, the “Dose predicted to exceed the CVB burden threshold of 1 mg/day” value [16] was “over 260 mg a day”, the “CVB Burden” value ([16]; daily dose 2 mg (human efficacious dose from PK/PD modeling)) was 0.01 mg/day and the “Covalent binding (CVB), +Aminobenzotriazole (CYP inhibitor)” value ([16]; human hepatocytes) was 29.5 pmol/mg protein. For the same molecule, the “Covalent binding (CVB), +Borneol (UGT inhibitor)” value ([16]; human hepatocytes) was 21.2 pmol/mg protein, the “Covalent binding (CVB), compound” value [16, 20] was 37.6 pmol/mg protein and the IC50 [7, 21] was 14.3 µM. For the same molecule, the IC50 ([7]; read-out: BSEP (bile salt export pump) IC50) was 14.3 µM, the “Inhibitory effect on mitochondrial function (DILI risk)” value [17] was “lower DILI risk than fasiglifam” and the AUC(0-inf) [18, 22] was 811 ng·h/mL. It also gave an AUC(0-t) [18, 22] of 680 ng·h/mL, a Cmax [18, 22] of 28.4 ng/mL and an AUC(0-inf) ([18]; 1 mg, single oral dose 1 mg) of 1660 ng·h/mL. The AUC(0-t) ([18]; 1 mg, single oral dose 1 mg) was 1370 ng·h/mL, the Cmax ([18]; 1 mg, single oral dose 1 mg) was 55.8 ng/mL and the AUC(0-inf) ([18]; 2 mg, single oral dose 2 mg) was 2980 ng·h/mL. The AUC(0-t) ([18]; 2 mg, single oral dose 2 mg) was 2480 ng·h/mL, the Cmax ([18]; 2 mg, single oral dose 2 mg) was 109 ng/mL and the AUC(0-inf) [18, 23] was 7740 ng·h/mL. It also gave an AUC(0-t) [18, 23] of 6520 ng·h/mL, a Cmax [18, 23] of 243 ng/mL and an AUC(0-inf) [18, 24] of 8270 ng·h/mL. It also gave an AUC(0-t) [18, 24] of 6930 ng·h/mL, a Cmax [18, 24] of 250 ng/mL and an AUC(0-inf) ([18]; 10 mg, single oral dose 10 mg) of 18600 ng·h/mL. The AUC(0-t) ([18]; 10 mg, single oral dose 10 mg) was 14800 ng·h/mL, the Cmax ([18]; 10 mg, single oral dose 10 mg) was 545 ng/mL and the “Fed/fasted % ratio for AUClast” value ([18]; single dose 5 mg) was 106.28%. The “Fed/fasted % ratio for Cmax” value ([18]; single dose 5 mg) was 103.19%, the “MRP3 in vitro inhibition IC50” value [9] was “No inhibition” and the IC50 [10] was 4.4 µM. For the same molecule, the “Increase of FXR activity” value [19] was 1.58 fold and the CC50 [12] was 52.7 µM.
